{"source": "patent US9066860B2", "about": "“Oil-in-water emulsified composition” (SHISEIDO COMPANY, LTD., priority 2009, dated 2015)", "origin": "cited, not measured here", "data": [{"settings": "background art statement", "values": [{"compound": "CCCCC(CC)COC(=O)C=Cc1ccc(OC)cc1", "note": "(stereo not drawn) [2-ethylhexyl p-methoxycinnamate]", "Maximum (peak) absorption wavelength": "~310 nm"}, {"compound": "CCCCC(CC)COC(=O)c1ccc(N(C)C)cc1", "note": "(stereo not drawn) [2-ethylhexyl-p-dimethylaminobenzoate]", "Maximum (peak) absorption wavelength": "~290 nm"}, {"compound": "COc1ccc(C(=O)CC(=O)c2ccc(C(C)(C)C)cc2)cc1", "note": "[4-tert-butyl-4′-methoxydibenzoylmethane]", "Maximum (peak) absorption wavelength": "around 360 nm"}]}]}
